“Also recorded” adds a separate entry of the source.
Legend:
[1] = tested on: PC12 cells; experiment: Cell death of PC12 cells, glutamate with or without MGV-1 (LDH); format: cell-based, rat
Description: (2) For PC12 cells (as for U118MG cells), dose-response assays of the lethal effects of glutamate on PC12 cells established 35 mM as an optimal concentration for glutamate for induction of LDH activity in the medium in the range of 20–40% as compared with the effect of the positive control, 1% Triton X-100, the latter which is defined as causing 100% of LDH release in the medium.

[2] = tested on: U118MG cells; experiment: Mitochondrial ROS / cardiolipin oxidation (NAO) assay in U118MG cells exposed to glutamate; format: cell-based, human; details: 25 μM compound, 35 mM glutamate
Text: Cardiolipin is present in the inner mitochondrial membrane, at the contact sites with the outer mitochondrial membrane. By application of NAO, we assayed cardiolipin peroxidation as an indication of mitochondrial ROS generation, as described previously.[71] NAO binds with high affinity to non-oxidized cardiolipin in a 2 : 1 ratio, but with less affinity to oxidized cardiolipin, the latter which is reflected by lower levels of green NAO fluorescence.[78] For our study, cells were collected and centrifuged at 1200×g for 5 min, 4 °C. Cell pellets were re-suspended in 0.5 ml of 0.1 μM NAO and incubated for 30 min at 37 °C in the dark. Then, the cells were washed once with 0.5 ml PBS and transferred into 5 ml FALCON FACS tubes and analyzed with the aid of a BD FACSCalibur flow cytometer using CellQuest software (BD Biosciences, Franklin Lakes, NJ, USA).

[3] = tested on: kainic acid-injected Sprague-Dawley rats; experiment: Systemic kainic acid injection model in rats (seizures, hyper reactivity, hippocampal histology); format: in vivo; details: rat
Text: Epileptic seizures in rats, including gnawing, wet dog shakes, head bobbing, forepaw abduction, rearing, forelimb clonus, loss of balance, and convulsions were induced by systemic injections of kainic acid and scored as previously described.[48],[83–85] Such induced seizures typically are accompanied by neurodegeneration in the hippocampus, amydala, pyriform cortex, followed by edema in the diencephalon, and mesencephalon.[43],[44],[86] To test the effects of pretreatment with MGV-1 on the consequences of kainic acid injections, first of all MGV-1 was dissolved in vehicle (10% (v/v) dimethylsulfoxide (DMSO) in sesame oil). After that, 8 weeks old rats received an intraperitoneal injection of 15, 7.5, or 3.75 mg of MGV-1 (per kg/rat), according to previous methods.[48] […] After the kainic acid injections, the rats were monitored continuously for 2 h for the development of epileptic symptoms.[48],[86]
For MGV-1 post-treatment, rats first received a KA injection (9 mg/kg/rat) and then a single injection of 15 mg/kg MGV-1 2 h later, that is, after the typical period for full blown seizure activity. In a single experiment, each experimental group and the vehicle control group consisted of nine rats. Then, for 1 week, daily injections of MGV-1 were given, and the rats were tested daily for hyper reactivity in response to handling.[47] Histological assays were applied 2 weeks after kainic acid injections.
For histological assays, rats that had developed seizures and had subsequently received treatment or control vehicle were sedated with ketamine (75 mg/kg) and xylazine (10 mg/kg) injections until no reflexes were seen and were then perfused with 4% of paraformaldehyde. […] The brains were taken and then stored in paraformaldehyde 4% solution at 4 °C. After 48 h, the solution was changed to 20% sucrose solution at 4 °C. Brains of rats that were post treated with MGV-1 were prepared in the same way. After the brains had sunk they were embedded in optimal cutting temperature compound, frozen with liquid nitrogen, and stored at −70 °C. The brains were cut at −18 °C on a Cryostat Leica (Wetzlar, Germany) CM3050S microtome in 40 μm sections from Bregma −2.8 to −5.8. The sections were kept in PBS without Ca^2+ and Mg^2+ with 0.5% sodium azide at 4 °C. Sections were incubated with primary antibodies against anti-NeuN to label neurons.[87] The appropriate secondary antibodies were applied with VECTASTAIN Peroxidase ABC Kits (Vector Laboratories, Burlingame, CA, USA) based on avidin–biotin, according to the manufacturer’s instructions. The labeled, floating sections were mounted on microscope slides and coverslipped applying glycerol vinyl alcohol aqueous mounting solution. For observations and micrographs, a BH2 Olympus (Tokyo, Japan) upright microscope outfitted with a Nikon (Tokyo, Japan) DSFi1 digital camera was used.

[4] = tested on: PC12 cells strain #1 (polygonal cells); experiment: Neuronal differentiation (neurite sprouting) of PC12 strain #1; format: cell-based, rat; details: strain #1, only polygonal cells
[5] = molecular target: T1, 18 kDa translocator protein (TSPO) (Rattus norvegicus, UniProt P16257); experiment: TSPO binding, displacement of [3H]PK 11195 in rat kidney membranes
T1 construct: 400 μl of homogenized rat kidney membranes (5 mg of homogenate/ml); from tissue; host or cells: rat kidney (homogenized membranes)
Description: After incubation for 60 min at 4 °C, samples were filtered under vacuum over Whatman GF/C filters and washed three times with 5 ml of 50 mM Tris-HCl buffer, pH 7.4. The filters were incubated in CytoScint (MP Biomedicals) and radioactivity was measured after 12 h with a 1600 CA Tri-Carb liquid scintillation analyzer (Packard). Inhibitory constant (Ki) values were calculated by the equation Ki=IC50/(1+C/Kd), where C=[^3H]

[6] = tested on: PC12 cells; experiment: Neuronal differentiation of PC12 cells, strain not specified; format: cell-based, rat; details: agent by itself; MGV-1 50 μM
Description: For our newly developed differentiation method by MGV-1 in combination with glutamate, PC12 cells were plated onto poly-L-lysine coated culture plates and Petri dishes at a relatively low density (5.2×10^3 cells/cm^2 for six-well plates and 3.6×10^3 cells/cm^2 for Petri dishes), in DMEM medium containing 8% heat-inactivated FBS and 8% horse serum. […] Exposure to vehicle alone (culture medium with 1% of ethanol) was used as the control.
The major and determining indication of neural differentiation of PC12 cells is neurite development.[23],[80] […] The number of differentiated cells was determined by visual examination of the captured fields. In particular, a line was drafted at half height of the image and the cell bodies crossed by the line were further analyzed regarding differentiation. […] Cells with at least one identifiable neurite with a length at least equal to the cell body diameter were scored, and their number expressed as a percentage of the total number of cells crossed by said line. In addition, for each of these cells, the length of the longest neurite was determined (using AxioVision Image software, Zeiss). […]

T1 sequence (P16257 whole entry): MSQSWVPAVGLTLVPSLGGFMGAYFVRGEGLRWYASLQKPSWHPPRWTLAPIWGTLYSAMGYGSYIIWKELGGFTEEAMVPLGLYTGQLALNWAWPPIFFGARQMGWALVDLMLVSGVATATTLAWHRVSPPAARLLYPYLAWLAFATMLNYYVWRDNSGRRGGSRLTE

Structure (SMILES): CN(C)C(=O)Oc1nc(-c2ccccc2)nc2ccccc12 [MGV-1, 2-phenylquinazolin-4-yl dimethylcarbamate]
- Cell death of PC12 cells by the compound by itself ([1]; 100 μM, no glutamate): can induce cell death
- Enhancement of cell death induction by glutamate ([1]; PC12, 50 μM MGV-1, 35 mM glutamate): threefold
- Optimal concentration as enhancer of cell death induced by glutamate ([1]; PC12, 35 mM glutamate, tested 0.1 nM-100 μM): 50 µM
- Prevention of cardiolipin oxidation / mitochondrial ROS generation induced by glutamate (NAO) [2]: prevent cardiolipin oxidation
- Induction of seizures by kainic acid ([3]; 15 and 7.5 mg/kg MGV-1 i.p. 2 h before kainic acid 9 mg/kg): reduction of seizure incidence by half
- Hyper reactivity in response to handling, post-treatment ([3]; MGV-1 15 mg/kg 2 h after kainic acid, then daily for 6 days): restores normal response to handling
- Damage in hippocampal area CA1 (NeuN labeling), post-treatment ([3]; MGV-1 15 mg/kg 2 h after kainic acid, then daily for a week): attenuated damage to area CA1, but less so than MGV-1 pretreatment
- Hyper reactivity in response to handling, pretreatment ([3]; MGV-1 2 h before kainic acid, week after injection): attenuates the incidence of the hyper reactivity
- Damage in hippocampal area CA1 (NeuN labeling), pretreatment ([3]; MGV-1 i.p. before kainic acid 9 mg/kg, histology 2 weeks later): well attenuated
- Differentiation of PC12 strain #1 by the agent by itself [4]: can be differentiated by MGV-1 by itself
- Ki [5]: 0.825 ± 0.315 µM
- Neuronal differentiation of PC12 cells (neurite outgrowth) [6]: very effective in inducing extensive neuronal differentiation; also recorded: more effective than NGF and glutamate by themselves
